According to ChEMBL document CHEMBL1201862, “PubChem BioAssay data set” (2004):
The source made the active and inactive calls.

Experiments:
[1] = Fluorescence polarization-based biochemical high throughput dose response assay for activators of the Protein Kinase A-R1A (PKA-R1A) complex. [Related pubchem assays (depositor defined):AID504704, AID504707, AID504799, AID504800]
[2] = Fluorescence polarization-based biochemical high throughput dose response assay for activators of the Protein Kinase A-R2B (PKA-R2B) complex. [Related pubchem assays (depositor defined):AID504700, AID504704, AID504796, AID504797]
[3] = molecular target: T1, Dual specificity protein phosphatase 3 (Homo sapiens, UniProt P51452); experiment: VHR1 phosphatase inhibitors, primary screen, biochemical, absorbance, uHTS (AID 1654)
[4] = molecular target: T1, Dual specificity protein phosphatase 3; experiment: VHR1 phosphatase inhibitors, biochemical (AID 1878)
[5] = molecular target: T2, Dual specificity protein phosphatase 6 (Rattus norvegicus, UniProt Q64346); experiment: MKP-3 phosphatase inhibitors, primary screen, biochemical, rat enzyme, in vitro (AID 425)
T2 sequence (Q64346 whole entry): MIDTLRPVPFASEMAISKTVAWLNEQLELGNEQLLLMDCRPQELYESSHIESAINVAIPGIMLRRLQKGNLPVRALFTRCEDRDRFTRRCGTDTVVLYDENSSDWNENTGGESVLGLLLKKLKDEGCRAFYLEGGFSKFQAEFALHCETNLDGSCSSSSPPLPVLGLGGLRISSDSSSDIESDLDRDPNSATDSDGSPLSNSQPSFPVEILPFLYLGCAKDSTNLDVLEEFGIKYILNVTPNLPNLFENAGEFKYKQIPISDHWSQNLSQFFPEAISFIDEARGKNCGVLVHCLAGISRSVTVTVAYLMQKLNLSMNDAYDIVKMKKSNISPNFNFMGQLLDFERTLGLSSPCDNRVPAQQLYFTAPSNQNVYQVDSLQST

[6] = molecular target: Glucose-6-phosphate 1-dehydrogenase (Homo sapiens, UniProt P11413); experiment: human G6PD enzyme inhibitors, dose response, selectivity assay for P. falciparum G6PD inhibitor project, biochemical, fluorescence (AID 504792); assay type: functional
[7] = molecular target: T1, Dual specificity protein phosphatase 3; experiment: SAR VHR1 absorbance Assay for In Vitro dose response studies. [Related pubchem assays (depositor defined):AID1654, AID1661, AID1878, AID1992, AID2004]
[8] = molecular target: T1, Dual specificity protein phosphatase 3; experiment: SAR VHR1 Fluorescent Assay for In Vitro dose response studies. [Related pubchem assays (depositor defined):AID1654, AID1661, AID1878, AID1992, AID2004, AID2070, AID2085]; assay type: functional
[9] = molecular target: T3, Tyrosine-protein phosphatase non-receptor type 7 (Homo sapiens, UniProt P35236); experiment: redox-dependent HePTP inhibition, mechanism study, biochemical, fluorescence (AID 2068); assay type: functional
T3 sequence (P35236 whole entry): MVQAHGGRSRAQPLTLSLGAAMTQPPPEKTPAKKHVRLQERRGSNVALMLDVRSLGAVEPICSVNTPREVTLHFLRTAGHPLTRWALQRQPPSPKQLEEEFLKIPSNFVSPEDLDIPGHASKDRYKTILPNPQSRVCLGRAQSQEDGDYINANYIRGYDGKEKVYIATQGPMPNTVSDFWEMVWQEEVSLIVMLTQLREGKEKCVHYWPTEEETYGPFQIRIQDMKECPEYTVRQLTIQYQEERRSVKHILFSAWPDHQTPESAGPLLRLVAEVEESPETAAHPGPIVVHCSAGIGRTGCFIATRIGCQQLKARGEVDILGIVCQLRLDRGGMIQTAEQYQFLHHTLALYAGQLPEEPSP

[10] = molecular target: T2, Dual specificity protein phosphatase 6; experiment: SAR analysis of inhibitors of MKP-3 - Set 2. [Related pubchem assays (depositor defined):AID1055, AID1661, AID425, AID553, AID566]; assay type: functional
[11] = molecular target: T3, Tyrosine-protein phosphatase non-receptor type 7; experiment: SAR analysis of chemical inhibitors of HePTP using a Fluorescent assay - Set 2. [Related pubchem assays (depositor defined):AID1059, AID1077, AID1661, AID2085, AID521]; assay type: functional
[12] = molecular target: T1, Dual specificity protein phosphatase 3; experiment: SAR VHR1 Fluorescent Assay for In Vitro dose response studies Set 2. [Related pubchem assays (depositor defined):AID1654, AID1661, AID1878]; assay type: functional
[13] = molecular target: T2, Dual specificity protein phosphatase 6; assay type: functional
[14] = molecular target: T4, Tyrosine-protein phosphatase non-receptor type 11 (Homo sapiens, UniProt Q06124); experiment: SHP2 phosphatase inhibition, dose response, selectivity assay for STEP inhibitor project, biochemical (AID 602367); assay type: functional; details: read-out: IC50_Mean
T4 sequence (Q06124 whole entry): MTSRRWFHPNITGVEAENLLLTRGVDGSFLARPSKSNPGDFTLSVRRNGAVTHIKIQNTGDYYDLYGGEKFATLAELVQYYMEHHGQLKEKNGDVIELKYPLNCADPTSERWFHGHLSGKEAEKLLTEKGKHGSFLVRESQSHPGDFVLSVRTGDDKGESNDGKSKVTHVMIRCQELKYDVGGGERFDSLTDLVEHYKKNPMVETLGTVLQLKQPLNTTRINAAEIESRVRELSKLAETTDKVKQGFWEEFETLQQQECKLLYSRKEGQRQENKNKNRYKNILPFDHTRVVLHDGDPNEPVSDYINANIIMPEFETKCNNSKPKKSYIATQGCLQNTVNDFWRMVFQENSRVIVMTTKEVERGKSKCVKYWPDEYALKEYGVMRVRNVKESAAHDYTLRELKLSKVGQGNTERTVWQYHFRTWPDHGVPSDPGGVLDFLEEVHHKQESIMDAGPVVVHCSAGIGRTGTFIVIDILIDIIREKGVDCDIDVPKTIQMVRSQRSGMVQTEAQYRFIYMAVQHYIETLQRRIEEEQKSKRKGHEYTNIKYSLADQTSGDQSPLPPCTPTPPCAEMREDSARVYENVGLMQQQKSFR

[15] = molecular target: T5, Tyrosine-protein phosphatase non-receptor type 5 (Homo sapiens, UniProt P54829); experiment: STEP phosphatase inhibitors, confirmation, biochemical, fluorescence intensity, uHTS hits (AID 602372); assay type: functional; details: read-out: IC50_Mean
T5 sequence (P54829 whole entry): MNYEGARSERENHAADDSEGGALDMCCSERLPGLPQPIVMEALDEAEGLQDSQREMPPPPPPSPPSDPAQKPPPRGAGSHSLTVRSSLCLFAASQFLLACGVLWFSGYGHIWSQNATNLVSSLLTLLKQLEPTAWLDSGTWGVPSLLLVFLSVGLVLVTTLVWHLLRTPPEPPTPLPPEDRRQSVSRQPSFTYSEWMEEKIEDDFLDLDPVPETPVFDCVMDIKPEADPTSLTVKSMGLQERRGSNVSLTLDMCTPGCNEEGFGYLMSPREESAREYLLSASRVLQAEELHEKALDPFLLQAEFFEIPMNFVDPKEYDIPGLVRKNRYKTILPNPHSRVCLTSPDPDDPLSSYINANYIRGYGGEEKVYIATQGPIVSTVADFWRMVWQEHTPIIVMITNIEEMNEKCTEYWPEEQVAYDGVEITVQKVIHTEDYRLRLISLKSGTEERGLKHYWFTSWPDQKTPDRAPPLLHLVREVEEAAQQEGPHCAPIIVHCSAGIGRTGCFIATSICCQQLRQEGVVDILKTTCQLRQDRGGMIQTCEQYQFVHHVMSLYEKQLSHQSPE

[16] = molecular target: T1, Dual specificity protein phosphatase 3; experiment: VHR phosphatase inhibition, dose response, selectivity assay for STEP inhibitor project, biochemical (AID 602374); assay type: functional; details: read-out: IC50_Mean
[17] = molecular target: T6, Tyrosine-protein phosphatase non-receptor type 22 (Homo sapiens, UniProt Q9Y2R2); experiment: PTPN22 phosphatase inhibition, dose response, selectivity assay for STEP inhibitor project, biochemical (AID 624241); assay type: functional
T6 sequence (Q9Y2R2 whole entry): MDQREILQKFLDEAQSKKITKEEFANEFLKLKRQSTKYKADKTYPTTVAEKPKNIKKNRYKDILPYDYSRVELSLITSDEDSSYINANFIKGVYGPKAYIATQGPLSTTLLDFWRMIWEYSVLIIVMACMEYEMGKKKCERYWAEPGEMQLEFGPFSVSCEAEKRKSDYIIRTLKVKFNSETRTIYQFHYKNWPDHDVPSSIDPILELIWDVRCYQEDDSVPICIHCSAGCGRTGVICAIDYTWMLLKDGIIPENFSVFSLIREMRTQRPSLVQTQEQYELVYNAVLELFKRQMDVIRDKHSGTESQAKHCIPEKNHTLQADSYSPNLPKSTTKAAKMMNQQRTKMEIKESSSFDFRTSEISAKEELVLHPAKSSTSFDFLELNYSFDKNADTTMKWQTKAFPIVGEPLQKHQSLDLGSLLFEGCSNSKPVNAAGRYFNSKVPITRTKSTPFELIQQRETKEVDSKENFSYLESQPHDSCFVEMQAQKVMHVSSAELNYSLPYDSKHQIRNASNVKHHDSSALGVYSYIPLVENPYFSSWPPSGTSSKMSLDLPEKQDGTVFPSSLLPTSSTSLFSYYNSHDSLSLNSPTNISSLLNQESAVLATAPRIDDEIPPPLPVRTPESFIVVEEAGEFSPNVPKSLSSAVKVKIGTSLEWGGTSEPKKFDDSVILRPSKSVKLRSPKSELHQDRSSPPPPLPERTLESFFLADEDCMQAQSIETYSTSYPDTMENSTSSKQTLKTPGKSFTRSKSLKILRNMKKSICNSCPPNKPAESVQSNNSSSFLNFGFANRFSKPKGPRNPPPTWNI

[18] = Luminescence Cell-Based Dose Retest to Confirm Inhibitors of Cancer Stem Cells. [Related pubchem assays (depositor defined):AID2717, AID2721]; assay type: functional; details: Homo sapiens
[19] = cytotoxicity in HMLE control line with eGFP shRNA, dose response, counter-screen for HMLE_sh_ECad selective toxicity project, cell-based, HMLE_sh_eGFP, luminescence (AID 463074); assay type: functional, Homo sapiens;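 further: HMLE human mammary epithelial cells expressing control shRNA against eGFP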
Escherichia coli [20] = experiment: microbe, parasite or virus in culture
Escherichia coli [21] = experiment: microbe, parasite or virus in culture; remark: listed apart in the source
[22] = molecular target: T1, Dual specificity protein phosphatase 3; experiment: SAR VHR1 Fluorescent Assay for In Vitro dose response studies Set 3. [Related pubchem assays (depositor defined):AID1654, AID1661, AID1878]; assay type: functional

T1 sequence (P51452 whole entry): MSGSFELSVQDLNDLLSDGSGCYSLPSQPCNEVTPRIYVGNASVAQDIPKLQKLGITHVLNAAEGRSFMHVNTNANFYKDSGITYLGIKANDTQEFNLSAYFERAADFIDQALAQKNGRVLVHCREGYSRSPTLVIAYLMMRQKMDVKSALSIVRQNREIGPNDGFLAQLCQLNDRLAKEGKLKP
Sequence of Glucose-6-phosphate 1-dehydrogenase (P11413 whole entry): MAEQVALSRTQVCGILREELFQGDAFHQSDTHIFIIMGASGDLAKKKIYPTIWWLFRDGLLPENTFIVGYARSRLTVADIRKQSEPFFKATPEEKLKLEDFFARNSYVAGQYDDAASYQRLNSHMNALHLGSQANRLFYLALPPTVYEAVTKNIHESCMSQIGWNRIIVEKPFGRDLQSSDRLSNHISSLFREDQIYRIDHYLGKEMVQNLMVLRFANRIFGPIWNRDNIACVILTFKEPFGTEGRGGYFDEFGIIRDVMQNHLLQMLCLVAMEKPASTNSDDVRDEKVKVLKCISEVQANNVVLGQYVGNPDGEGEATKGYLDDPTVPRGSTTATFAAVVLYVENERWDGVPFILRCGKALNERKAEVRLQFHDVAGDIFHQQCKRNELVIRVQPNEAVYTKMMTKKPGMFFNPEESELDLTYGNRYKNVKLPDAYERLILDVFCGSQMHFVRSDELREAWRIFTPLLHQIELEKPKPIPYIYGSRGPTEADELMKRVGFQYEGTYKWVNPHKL

For Nc1ncnc2c1nc(Br)n2[C@@H]1O[C@@H]2COP(=O)(O)O[C@H]2[C@H]1O, the EC50 [1] was 0.0344 µM (active) and the EC50 [2] was 0.0511 µM (active).

For COc1ccc(NC(=S)N(CCC(C)C)C2CCN(C(C)C)CC2)cc1Cl, the IC50 [3] was 2.09 µM (active), the IC50 [4] was 4.01 µM (active) and the IC50 [5] was > 158 µM (not active). The IC50 [6] was > 80 µM (inactive), the IC50 [7] was 1.26 µM (active) and the IC50 [8] was > 99 µM (inactive). For the same compound, the IC50 [9] was < 0.195 µM (active), the IC50 [10] was > 100 µM (inactive) and the IC50 [11] was 0.662 µM (active). For the same compound, the IC50 [12] was 0.216 µM (active), the IC50 [13] was > 99 µM (inactive) and the IC50 [14] was 0.676 µM (active). The IC50 [15] was 3.86 µM (active), the IC50 [16] was 0.271 µM (active) and the IC50 [17] was 21 µM (inactive).

With COc1ccccc1N=C(S)N=Nc1c(O)[nH]c2ccc(Br)cc12 the AC50 [18] was 0.739 µM (active) and the AC50 [19] was 31.4 µM (active).

For Cc1ccccc1C(=O)N1CCC(C(=O)NC(C)c2ccc(-n3ccnc3)cc2)CC1 (configuration not stated), the AC50 (Escherichia coli [20]) was 24.5 µM (active) and the AC50 (Escherichia coli [21]) was 69.2 µM (active).

With O=C(Nc1ccc(-c2nc3ccccc3s2)cc1)c1cc(-n2cnnc2)ccc1Cl the IC50 [22] was 12.1 µM (active).
